The target in one test is T1, SIK2[T96Q] (Homo sapiens, UniProt Q9H0K1, T96Q).
T1 construct: GST; made in house; host or cells: HEK293 cells
It is filed as biochemical. The conditions noted are these: gatekeeper threonine mutated to glutamine.

The subject of another test is CRTC3. As to the kind of experiment: CRTC3 phosphorylation (immunoprecipitation, immunoblot). It is filed as cell-based. The conditions noted are these: RAW264.7 macrophages, 1 h. On the technique in general: A western blot detects proteins with antibodies after separation by electrophoresis.
Another test addresses EF2K (Homo sapiens, UniProt O00418). Nature of the test: Kinase profiling. It is filed as biochemical.
Another test concerns the target T2, MAP4K3 (Homo sapiens, UniProt Q8IVH8).
T2 sequence (Q8IVH8 1-894): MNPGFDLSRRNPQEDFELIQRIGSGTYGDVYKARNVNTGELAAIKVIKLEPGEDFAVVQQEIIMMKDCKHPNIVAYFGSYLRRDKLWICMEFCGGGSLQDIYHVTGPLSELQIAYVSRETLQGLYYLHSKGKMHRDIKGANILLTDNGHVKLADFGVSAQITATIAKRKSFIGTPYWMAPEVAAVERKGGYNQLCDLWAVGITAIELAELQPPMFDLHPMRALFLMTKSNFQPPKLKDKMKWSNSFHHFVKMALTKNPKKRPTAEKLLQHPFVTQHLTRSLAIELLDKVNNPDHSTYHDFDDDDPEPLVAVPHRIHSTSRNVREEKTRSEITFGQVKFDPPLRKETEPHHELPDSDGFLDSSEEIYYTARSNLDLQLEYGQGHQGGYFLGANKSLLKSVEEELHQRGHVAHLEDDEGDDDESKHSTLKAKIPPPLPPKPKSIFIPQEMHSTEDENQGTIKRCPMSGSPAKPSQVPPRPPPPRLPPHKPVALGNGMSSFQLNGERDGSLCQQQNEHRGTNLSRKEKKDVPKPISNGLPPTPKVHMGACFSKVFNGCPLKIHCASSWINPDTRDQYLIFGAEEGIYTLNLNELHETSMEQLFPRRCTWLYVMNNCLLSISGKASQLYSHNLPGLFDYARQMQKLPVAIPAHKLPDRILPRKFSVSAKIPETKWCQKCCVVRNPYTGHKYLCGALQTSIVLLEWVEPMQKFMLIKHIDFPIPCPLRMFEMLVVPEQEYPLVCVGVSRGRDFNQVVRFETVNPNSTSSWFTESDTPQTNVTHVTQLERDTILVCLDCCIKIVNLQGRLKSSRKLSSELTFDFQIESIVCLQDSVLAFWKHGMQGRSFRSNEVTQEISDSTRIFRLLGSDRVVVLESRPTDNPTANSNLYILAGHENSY
Nature of the test: Kinase profiling. It is filed as biochemical.

A further test concerns the target T3, NUAK1 (Homo sapiens, UniProt O60285).
T3 sequence (O60285 1-661): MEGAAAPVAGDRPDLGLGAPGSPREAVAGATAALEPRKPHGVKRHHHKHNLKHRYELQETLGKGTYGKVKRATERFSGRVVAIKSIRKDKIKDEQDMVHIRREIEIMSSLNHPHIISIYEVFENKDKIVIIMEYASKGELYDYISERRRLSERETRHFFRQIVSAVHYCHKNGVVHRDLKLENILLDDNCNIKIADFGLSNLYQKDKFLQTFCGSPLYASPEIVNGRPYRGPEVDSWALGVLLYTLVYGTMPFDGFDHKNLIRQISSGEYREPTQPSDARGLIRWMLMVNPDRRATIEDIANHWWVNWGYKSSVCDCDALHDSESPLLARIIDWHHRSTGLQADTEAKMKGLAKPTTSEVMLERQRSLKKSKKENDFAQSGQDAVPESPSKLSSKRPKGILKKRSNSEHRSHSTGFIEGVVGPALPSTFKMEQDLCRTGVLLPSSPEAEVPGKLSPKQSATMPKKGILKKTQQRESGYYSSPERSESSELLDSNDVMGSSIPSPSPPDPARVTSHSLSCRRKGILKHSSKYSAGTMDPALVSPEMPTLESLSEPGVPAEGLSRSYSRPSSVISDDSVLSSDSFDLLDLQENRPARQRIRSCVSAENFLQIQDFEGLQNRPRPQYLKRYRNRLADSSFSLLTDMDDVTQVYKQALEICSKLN
Nature of the test: Kinase profiling. It is filed as biochemical.

The next test concerns the target p38 alpha MAPK (Homo sapiens, UniProt Q16539). Nature of the test: Kinase profiling. It is filed as biochemical.
For a further test, the target named is p38 beta MAPK (Homo sapiens, UniProt Q15759). As to the kind of experiment: Kinase profiling. It is filed as biochemical.
Sequence of p38 beta MAPK (Q15759 whole entry): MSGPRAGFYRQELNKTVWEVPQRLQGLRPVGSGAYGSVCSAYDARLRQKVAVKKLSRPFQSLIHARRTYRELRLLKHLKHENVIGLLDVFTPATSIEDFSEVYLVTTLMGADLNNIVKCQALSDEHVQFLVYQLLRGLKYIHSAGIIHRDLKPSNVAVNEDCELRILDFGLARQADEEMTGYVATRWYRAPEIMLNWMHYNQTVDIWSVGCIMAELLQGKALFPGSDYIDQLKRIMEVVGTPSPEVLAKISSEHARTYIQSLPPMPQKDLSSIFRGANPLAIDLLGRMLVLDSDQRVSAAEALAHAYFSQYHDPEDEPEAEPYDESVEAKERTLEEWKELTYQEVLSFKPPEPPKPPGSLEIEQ
A further test has as its target SmMLCK (Homo sapiens, UniProt Q15746). Nature of the test: Kinase profiling. It is filed as biochemical.
In another test the target is T4, TBK1 (Homo sapiens, UniProt Q9UHD2).
T4 sequence (Q9UHD2 1-729): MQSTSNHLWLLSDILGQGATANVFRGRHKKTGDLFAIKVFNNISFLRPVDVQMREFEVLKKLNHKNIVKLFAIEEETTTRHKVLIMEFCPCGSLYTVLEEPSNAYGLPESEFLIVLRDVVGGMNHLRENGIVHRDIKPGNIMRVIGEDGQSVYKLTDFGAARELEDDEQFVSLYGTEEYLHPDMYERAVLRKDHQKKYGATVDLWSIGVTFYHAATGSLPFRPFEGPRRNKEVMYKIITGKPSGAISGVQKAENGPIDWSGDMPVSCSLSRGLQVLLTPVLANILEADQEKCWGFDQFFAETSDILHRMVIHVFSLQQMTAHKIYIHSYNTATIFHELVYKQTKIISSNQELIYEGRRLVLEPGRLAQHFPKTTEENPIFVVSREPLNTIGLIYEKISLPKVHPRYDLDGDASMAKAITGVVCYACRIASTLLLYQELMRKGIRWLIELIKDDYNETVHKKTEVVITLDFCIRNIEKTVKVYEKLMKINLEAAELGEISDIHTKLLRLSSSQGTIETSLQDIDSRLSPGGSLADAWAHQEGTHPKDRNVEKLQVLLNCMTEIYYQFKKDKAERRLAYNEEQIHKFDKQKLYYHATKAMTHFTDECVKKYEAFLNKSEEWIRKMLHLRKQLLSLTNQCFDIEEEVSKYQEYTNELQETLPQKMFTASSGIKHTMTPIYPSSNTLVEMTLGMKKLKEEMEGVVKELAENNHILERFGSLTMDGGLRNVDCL
Nature of the test: Kinase profiling. It is filed as biochemical.

Molecules are shown by their SMILES.

Experimental findings from publication PMC4286194 (Biochemical Journal, 2015) are described below.

Sequence of SmMLCK (Q15746 923-1914): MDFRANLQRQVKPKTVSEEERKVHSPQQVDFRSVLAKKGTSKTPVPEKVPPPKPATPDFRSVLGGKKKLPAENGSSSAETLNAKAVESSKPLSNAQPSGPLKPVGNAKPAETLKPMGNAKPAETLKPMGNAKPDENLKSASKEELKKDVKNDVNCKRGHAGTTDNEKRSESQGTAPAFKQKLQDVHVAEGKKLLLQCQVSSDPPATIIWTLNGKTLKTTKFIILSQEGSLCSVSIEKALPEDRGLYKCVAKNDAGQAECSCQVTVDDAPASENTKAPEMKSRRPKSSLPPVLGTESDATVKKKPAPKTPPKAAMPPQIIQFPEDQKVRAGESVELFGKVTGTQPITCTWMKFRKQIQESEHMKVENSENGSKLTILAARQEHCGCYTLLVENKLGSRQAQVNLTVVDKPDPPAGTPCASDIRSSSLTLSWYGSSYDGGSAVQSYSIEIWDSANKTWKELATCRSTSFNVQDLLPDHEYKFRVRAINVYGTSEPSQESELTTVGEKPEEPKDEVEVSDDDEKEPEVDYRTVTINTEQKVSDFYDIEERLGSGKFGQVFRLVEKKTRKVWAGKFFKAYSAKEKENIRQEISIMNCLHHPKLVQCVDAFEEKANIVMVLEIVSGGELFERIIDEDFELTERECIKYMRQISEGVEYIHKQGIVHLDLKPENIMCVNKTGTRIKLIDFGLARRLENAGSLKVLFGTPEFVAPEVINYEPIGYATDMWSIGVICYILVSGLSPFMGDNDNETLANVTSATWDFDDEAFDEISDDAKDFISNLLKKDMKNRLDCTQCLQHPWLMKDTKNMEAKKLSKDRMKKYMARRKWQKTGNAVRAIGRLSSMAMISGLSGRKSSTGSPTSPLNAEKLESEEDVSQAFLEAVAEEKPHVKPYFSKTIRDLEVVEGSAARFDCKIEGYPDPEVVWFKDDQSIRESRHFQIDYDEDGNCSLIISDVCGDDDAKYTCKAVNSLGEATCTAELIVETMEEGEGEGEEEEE
Sequence of p38 alpha MAPK (Q16539 whole entry): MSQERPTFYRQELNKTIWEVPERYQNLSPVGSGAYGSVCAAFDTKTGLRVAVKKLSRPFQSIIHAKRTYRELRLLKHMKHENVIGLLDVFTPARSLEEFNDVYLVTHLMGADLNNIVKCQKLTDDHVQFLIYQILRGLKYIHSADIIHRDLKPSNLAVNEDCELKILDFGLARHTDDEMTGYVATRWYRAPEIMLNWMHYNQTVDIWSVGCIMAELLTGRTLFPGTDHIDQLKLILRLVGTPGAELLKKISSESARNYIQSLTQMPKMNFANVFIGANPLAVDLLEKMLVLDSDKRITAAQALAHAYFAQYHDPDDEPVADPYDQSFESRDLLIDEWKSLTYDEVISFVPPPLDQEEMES
T1 sequence (Q9H0K1 whole entry T96Q): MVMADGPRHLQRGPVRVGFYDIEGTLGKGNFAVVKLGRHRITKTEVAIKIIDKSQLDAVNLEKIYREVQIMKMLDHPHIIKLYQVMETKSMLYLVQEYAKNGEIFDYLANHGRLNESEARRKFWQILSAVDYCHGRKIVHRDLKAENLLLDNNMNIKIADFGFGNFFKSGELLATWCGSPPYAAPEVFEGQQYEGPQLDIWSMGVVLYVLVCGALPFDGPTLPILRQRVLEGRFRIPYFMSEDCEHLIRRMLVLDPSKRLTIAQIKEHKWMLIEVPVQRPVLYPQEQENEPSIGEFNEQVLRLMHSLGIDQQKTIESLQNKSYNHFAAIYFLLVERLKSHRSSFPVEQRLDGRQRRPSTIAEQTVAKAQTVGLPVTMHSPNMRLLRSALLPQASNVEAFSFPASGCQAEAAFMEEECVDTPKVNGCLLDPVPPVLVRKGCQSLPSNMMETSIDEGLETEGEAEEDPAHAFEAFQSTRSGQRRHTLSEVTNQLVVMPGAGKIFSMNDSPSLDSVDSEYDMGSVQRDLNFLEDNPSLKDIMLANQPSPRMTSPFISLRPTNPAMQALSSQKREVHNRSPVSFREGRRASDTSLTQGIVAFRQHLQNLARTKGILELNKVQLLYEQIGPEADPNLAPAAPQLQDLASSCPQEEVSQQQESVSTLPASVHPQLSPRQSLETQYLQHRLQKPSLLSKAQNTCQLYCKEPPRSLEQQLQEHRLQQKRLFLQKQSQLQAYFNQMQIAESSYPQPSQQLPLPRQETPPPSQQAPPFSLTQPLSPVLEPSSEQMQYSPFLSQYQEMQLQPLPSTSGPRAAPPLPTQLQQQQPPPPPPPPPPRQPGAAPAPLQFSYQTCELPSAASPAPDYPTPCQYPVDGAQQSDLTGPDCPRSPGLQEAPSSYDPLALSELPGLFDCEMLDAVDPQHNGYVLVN
Experimental for CRTC3: RAW264.7 cells were cultured in DMEM containing 10% FBS, 2 mM glutamine and penicillin and streptomycin. […] Cells were treated for 1 h with or without inhibitors and then stimulated for up to 24 h with either 1 μg/ml Pam3CSK4 or 100 ng/ml LPS.
Cells were extracted in lysis buffer [50 mM Tris/HCl, pH 7.4, 1 mM EDTA, 1 mM EGTA, 50 mM NaF, 5 mM sodium pyrophosphate, 10 mM sodium β-glycerol 1-phosphate, 1 mM DTT, 1 mM sodium orthovanadate, 0.27 M sucrose, 1% (v/v) Triton X-100, 1 μg/ml aprotinin, 1 μg/ml leupeptin and 1 mM PMSF]. Cell extracts were clarified by centrifugation and protein concentrations were determined using the Bradford assay. To immunoprecipitate endogenous CRTC3, 1 mg of cell extract was incubated with 5 μg of anti-CRTC3 [13] covalently cross-linked on to Protein G–Sepharose. Immune complexes were washed three times with lysis buffer, eluted in 1% SDS and separated by SDS/PAGE. To detect proteins in cell lysates, 20 μg of protein extract was separated by SDS/PAGE. After transfer to PVDF membranes, proteins were detected by immunoblotting and visualized by treating the blots with ECL (GE Healthcare) followed by autoradiography.

As to `COc1cc(Nc2c(C#N)cnc3cc(OCCCN4CCN(C)CC4)c(OC)cc23)c(Cl)cc1Cl` [Bosutinib, bosutinib], the “Loss of sensitivity of SIK2[T96Q] versus wild-type” value at SIK2[T96Q] is recorded as 100–1000 fold. Also, in the test with CRTC3, the “Phosphorylation of CRTC3 at Ser162 and Ser370” value is recorded as “dephosphorylation”. In addition, the remaining activity at 0.1 µM was 81 ± 2% at EF2K; 3% at MAP4K3; 63 ± 12% at NUAK1; 97 ± 4% at p38 alpha MAPK; 94 ± 15% on p38 beta MAPK; 88 ± 2% on SmMLCK. In addition, the remaining activity at 0.1 µM at TBK1 was found to be 75 ± 1%. The remaining activity at 1 µM came out at 95 ± 6% on EF2K; 1% on MAP4K3; 21 ± 2% on NUAK1; 72 ± 3% on p38 alpha MAPK; 108 ± 24% at p38 beta MAPK; 27 ± 1% at SmMLCK. Besides, at TBK1, the remaining activity at 1 µM stood at 29 ± 1%.
In the case of `Cc1nc(Nc2ncc(C(=O)Nc3c(C)cccc3Cl)s2)cc(N2CCN(CCO)CC2)n1` [Dasatinib], the “Loss of sensitivity of SIK2[T96Q] versus wild-type” value at SIK2[T96Q] is recorded as 100–1000 fold. The “Phosphorylation of CRTC3 at Ser162 and Ser370” value in the test with CRTC3 was “dephosphorylation”. The remaining activity at 0.1 µM at EF2K was 104 ± 4%; on MAP4K3, 88 ± 15%; at NUAK1, 119 ± 10%; at p38 alpha MAPK it was 79 ± 15%; on p38 beta MAPK it was 105 ± 11%; at SmMLCK, 111 ± 4%. The remaining activity at 0.1 µM on TBK1 is 100 ± 1%. The remaining activity at 1 µM at EF2K was 95 ± 5%; at MAP4K3 it was 54 ± 1%; on NUAK1 it was 118 ± 8%; on p38 alpha MAPK, 29 ± 2%; on p38 beta MAPK, 44 ± 4%; on SmMLCK, 111 ± 7%. The remaining activity at 1 µM at TBK1 was found to be 97 ± 10%.

A word on the remaining activity: it is the signal under treatment as a percentage of the control signal.
